# Literature values, collected in patent US10481149B2.
# Test system: elimination transporters
# Settings: sandwich-cultured rat hepatocytes; cited from earlier work
smiles,measurement,value
COc1ccc(Cl)cc1C(=O)NCCc1ccc(S(=O)(=O)NC(=O)NC2CCCCC2)cc1 [glibenclamide],interference with rosuvastatin elimination,29.3%
